The results in this text go back to patent publication US9992989B2, “Dual action lethal containers, systems, methods and compositions for killing adult mosquitos and larvae” (University of Florida Research Foundation, Inc., priority 2012, dated 2018).

In one data set the test system is mosquito larvae. Briefly: Dual-action ovitrap test, larval survival (Protocol D). It is filed as in vivo. Particulars: for Mosquito larval survival / mortality versus hours of exposure: larvae in water of ovitrap treated with coating (FIGS. 9-11). As for the experimental part:
The following protocols A, B, C and D list the flowchart methodologies for experiments that were conducted for evaluating the different coatings used. • A. Flowchart of methodology in the evaluation of adulticide coating includes the steps of: • i. Obtain preferred coating basis; • ii. Add adulticide (pyrethroids) and, if desired, an additive (CARBONXIDE™) to formulate different formulations of insecticides; • iii. Add coating on wood panels; • iv. Age wood panels in simulated environmental conditions; • v. Prepare housing for adult mosquitoes • a Place a 4-oz plastic cup upside down on coated wood panels; • vi. Place adult mosquitoes in the housing cup to expose them to insecticidal coating; • vii. Measure mosquito mortality in 1-hour, 2-hour, and 24-hour after exposure; • viii. Collect data and perform statistical analysis to determine effectiveness of adulticide coating. • B. Flowchart of methodology in the evaluation of larvicide coating can include: • i. Obtain preferred coating basis; • ii. Add larvicide (insect growth regulators) and, if desired, an additive (CARBONXIDE™); • iii. Coat filter paper and let air dry for 1-3 days; • iv. Prepare housing for larval mosquitoes; • a. Place coated filter paper in 4-oz glass jars; • b. Fill jars with unchlorinated or distilled water; • v. Place larval mosquitoes on the jars; • vi. Measure mosquito larva mortality in 12-hour intervals until all are dead or emerged as adults; • vii. Collect data and perform statistical analysis to determine effectiveness of adulticide coating. • C. Flowchart of methodology in evaluation of adulticide coating as applied in lethal ovitrap can include: • i. Obtain preferred coating basis; • ii. Add adulticide (pyrethroids) and, if desired an additive (CARBONXIDE™); • iii. Coat filter paper and let air dry for 1-3 days; • iv. Prepare oviposition cup; • a. Place coated filter paper in a 4-oz plastic cup; • b. Fill cup halfway with unchlorinated or distilled water; • v. Prepare housing for gravid (“pregnant”) females; • a. Cut a 1-inch hole on the side of a 3-gallon bucket; • b. Cover hole with ½ in foam; • vi. […]

A further data set concerns Aedes aegypti. Briefly: Adult mosquito mortality on aged insecticidal coatings on wood panels (Protocol A). The class given is in vivo. The note with it: 24 h exposure, independent of aging for approximately 2 years (FIG. 7). Here is the method: (§1) The following protocols A, B, C and D list the flowchart methodologies for experiments that were conducted for evaluating the different coatings used. • A. Flowchart of methodology in the evaluation of adulticide coating includes the steps of: • i. Obtain preferred coating basis; • ii. Add adulticide (pyrethroids) and, if desired, an additive (CARBONXIDE™) to formulate different formulations of insecticides; • iii. Add coating on wood panels; • iv. Age wood panels in simulated environmental conditions; • v. Prepare housing for adult mosquitoes • a Place a 4-oz plastic cup upside down on coated wood panels; • vi. Place adult mosquitoes in the housing cup to expose them to insecticidal coating; • vii. Measure mosquito mortality in 1-hour, 2-hour, and 24-hour after exposure; • viii. Collect data and perform statistical analysis to determine effectiveness of adulticide coating. • B. Flowchart of methodology in the evaluation of larvicide coating can include: • i. Obtain preferred coating basis; • ii. Add larvicide (insect growth regulators) and, if desired, an additive (CARBONXIDE™); • iii. Coat filter paper and let air dry for 1-3 days; • iv. Prepare housing for larval mosquitoes; • a. Place coated filter paper in 4-oz glass jars; • b. Fill jars with unchlorinated or distilled water; • v. Place larval mosquitoes on the jars; • vi. […]

The subject of a further data set is Aedes albopictus. The description is as above. It is filed as in vivo. Particulars: 24 h exposure, independent of aging for approximately 2 years (FIG. 8). As for the experimental part:
as §1

In data set [1] the test system is gravid females (adult mosquitoes). Description: Dual-action ovitrap test, adult survival (Protocol D). Particulars: gravid females exposed to ovitrap treated with coating (FIGS. 9-11). It is filed as in vivo, mosquito. Here is the method: as §1

As to `CC1(C)C(C=C(Cl)Cl)C1C(=O)OCc1cccc(Oc2ccccc2)c1` (stereo not shown) [permethrin], the “Mosquito larval survival / mortality versus hours of exposure” value in the data set on mosquito larvae is reported as “killed rapidly”. The “Percent of Adult Mosquito Mortality” value with Aedes aegypti and in the data set with Aedes albopictus was 100% in each case. The “Adult survival / mortality versus hours of exposure” value in data set [1] is reported as “Adult mortality does not occur until after the females have started laying eggs”.
As to `CC(COc1ccc(Oc2ccccc2)cc1)Oc1ccccn1` (stereo not shown) [pyriproxyfen], the “Pupal development / adult emergence from larvae” value with mosquito larvae (larvae in ovitrap treated with coating (FIG. 11)) is listed as “adults never emerge”. The “Mosquito larval survival / mortality versus hours of exposure” value in the data set on mosquito larvae is given as “killed rapidly when they start molting into the pupal stage”. Moreover, in data set [1], the “Adult survival / mortality versus hours of exposure” value was “only normal mortality”.
